Read-outs that look alike come from different tables or passages of the source. Marks after values point to notes of the source that are not given here.
Tests used:
Btk kinase = Btk kinase (Homo sapiens, UniProt Q06187); assay: Btk Biacore binding assay
Procedure: Analyses were performed on a Biacore T-100. Btk kinase was avi-tagged and co-expressed in baculovirus with biotin ligase to generate single site biotinylated Btk (Avidity, LLC). Biotinylated target was captured on Biacore streptavidin sensor chips (Series S Sensor Chip SA) at densities of ˜10000 resonance units (1 ru˜1 pg protein/mm2). […] Compounds were injected for 100 seconds association time and dissociation was followed for 20 min.

Pharmacokinetics in dog = format: in vivo
[1] = tested on: OVA sensitized and challenged mice, allergen-induced bronchoconstriction; assay: Ovalbumin-induced allergic airway disease: allergen-induced bronchoconstriction
Pharmacokinetics in rat = format: in vivo
[2] = tested on: mice, poly I:C-induced airway neutrophilia; assay: Poly I:C induced steroid-resistant airway inflammation (neutrophilia); format: in vivo, mouse; conditions: for % reduction in airway neutrophilia: Inhaled
Procedure: Compound 1's effects on airway inflammation induced by a synthetic form of double-stranded RNA, polyinosine-polycytidylic acid (Poly I:C) were assessed. […] To perform this experiment, mice (male; BALB/c; 7-9 weeks of age) were anesthetized with isoflurane and intranasally (i.n.) administered saline or poly I:C ([…]) and airway inflammation was evaluated 24 hours later as previously described [Harris et al., 2012, Mucosal Immunology]. Compound 1 inhibited poly I:C-induced airway neutrophilia in a dose-dependent (Table 6). These reductions in neutrophils were consistent with reductions in the levels of neutrophil chemoattractants in the lavage fluid (Table 4).

[3] = tested on: human mast cells (FCεRI activation); assay: Human mast cell activation, mediator release after FCεRI activation; format: cell-based; conditions: N = 3 donors
Procedure: One million human cord blood derived CD34+ hematopoietic stem cells (HSCs) from different donors (AllCells #CB008F-S, Emeryville, Calif.) were cultured for eight weeks in a serum-free complete medium (StemPro-34 with supplements; Invitrogen, Carlsbad, Calif.), with recombinant h-SCF (100 ng/ml) and h-IL6 (50 ng/ml). During the first week of culturing, recombinant h-IL3 (10 ng/ml) was also included to support HSCs differentiation. After 8 weeks of culture, cells were stimulated with recombinant h-IL-4 (10 ng/ml) for 5 days. Confirmation of the mast cell differentiation process was routinely done by FACS to check for c-kit and FcsRI expression; differentiated cells were routinely more than 90% c-kit positive, FceRI positive. Differentiated mast cells were sensitized with […] anti-NP IgE (Serotec, Raleigh, N.C.) overnight at 37° C. Cells were washed and then treated with Compound 1 for 1 hour at 37° C. After treatment, cells were cross-linked with […] NP(30)-BSA (Biosearch Technologies, Novato Calif.) for 30 minutes (for histamine and lipid mediator assessment) or overnight (for cytokine assessment). Culture supernatants were collected and assayed for histamine (Oxford Biomedical Research, Rochester Hills, Mich.), PGD2 and LTC4 (Cayman Chemical Company, Ann Arbor Mich.), and IL-5 and IL-13 (Bio-Rad Bio-Plex Pro cytokine quantification kit) release as per kits' instructions. Compound 1, Compound 2 and Compound 3 reduced the release of these mediators into the supernatant in a concentration dependent manner up to 100% efficacy and the IC50 values are reported in Table 2.

[4] = Pharmacokinetics in mouse; format: in vivo
[5] = Micronization: particle size and polymorphic form; format: physicochemical
Procedure: 10.6 g of compound 1 was micronized in a Jet-O-Mizer jet mill at feed and grinding pressures of 90 psi. The micronized material thus obtained was analyzed by powder X-ray diffraction pattern and particle size distribution as shown in FIGS. 1 and 2 respectively. No change in polymorphic form was observed during the micronization process. Eighty percent of the particles were of size 5 μm or less with a mean particle size (d50%=2.88 μm) in the range suitable for inhalation delivery. The material was used for the in vivo experiment mOVA36.
8.6 g of 2-(6-tert-butyl-8-fluoro-1-oxophthalazin-2(1H)-yl)-4-(1-methyl-5-(5-(1-methylpiperidin-4-yl)pyridin-2-ylamino)-6-oxo-1,6-dihydropyridazin-3-yl)nicotinaldehyde was micronized in a Jet-O-Mizer jet mill at 80 psi. The mean particle size (d50%) was 3.05 μm with 90% particles ≦6 μm (FIG. 3). This material (30% w/w) and lactose (Lactohale LH 300, 70% w/w) were mixed in a Turbula mixer at 22 rpm for 15 minutes. The d50% and d90% particle size of the lactose ingredient were <5 μm and <10 μm, respectively (DFE Pharma specifications (#001/October 2011). The blend thus obtained was used for the in vivo experiment mOVA40, mPolylC-3-12 and mPolylC-5-12. See FIG. 3.

Sequence of Btk kinase (Q06187 whole entry): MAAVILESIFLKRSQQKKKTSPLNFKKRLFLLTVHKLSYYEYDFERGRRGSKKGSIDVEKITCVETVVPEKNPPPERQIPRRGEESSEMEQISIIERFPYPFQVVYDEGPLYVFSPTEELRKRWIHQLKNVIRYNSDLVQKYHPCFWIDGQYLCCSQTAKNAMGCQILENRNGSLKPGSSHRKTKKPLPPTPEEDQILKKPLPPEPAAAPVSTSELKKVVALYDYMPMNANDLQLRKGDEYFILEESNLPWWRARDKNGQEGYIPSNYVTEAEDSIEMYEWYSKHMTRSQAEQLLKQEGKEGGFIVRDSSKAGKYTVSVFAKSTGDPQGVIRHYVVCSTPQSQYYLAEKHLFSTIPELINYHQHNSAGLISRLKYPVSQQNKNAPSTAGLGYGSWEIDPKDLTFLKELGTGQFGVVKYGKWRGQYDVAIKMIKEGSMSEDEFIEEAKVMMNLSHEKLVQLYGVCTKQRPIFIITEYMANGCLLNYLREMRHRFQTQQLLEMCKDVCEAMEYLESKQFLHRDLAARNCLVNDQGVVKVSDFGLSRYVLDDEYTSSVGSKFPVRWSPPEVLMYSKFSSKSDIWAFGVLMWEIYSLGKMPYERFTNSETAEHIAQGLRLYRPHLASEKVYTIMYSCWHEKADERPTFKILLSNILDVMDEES

- Kd (Btk kinase): 0.408 nM
- off rate (Btk kinase; Biacore): very slow
- kon (Btk kinase; read-out: Biacore Ka): 886000 M⁻¹ s⁻¹
- CL (Pharmacokinetics in dog; 1.0 mg/kg (iv)): high
- Oral Bioavailability (Pharmacokinetics in dog; 1.0 (iv), 1.0 (po) mg/kg): low
- clearance (Pharmacokinetics in dog; plasma, 1.0 mg/kg (iv)): 28.3 mL/min/kg
- bioavailability (Pharmacokinetics in dog; plasma, 1 mg/kg, 1.0 (iv), 1.0 (po) mg/kg): 1.5%
- CL (Pharmacokinetics in rat; 1.0 mg/kg (iv)): high
- Oral Bioavailability (Pharmacokinetics in rat; 1.0 (iv), 2.0 (po) mg/kg): low
- clearance (Pharmacokinetics in rat; plasma, 1.0 mg/kg (iv)): 75.8 mL/min/kg
- bioavailability (Pharmacokinetics in rat; plasma, 2 mg/kg, 1.0 (iv), 2.0 (po) mg/kg): 2%
- IC50 ([3]; read-out: IC50 1L-13 release): 11.6 nM
- IC50 ([3]; read-out: IC50 GM-CSF release): 3.77 nM
- IC50 ([3]; read-out: IC50 Histamine release): 14.7 nM
- IC50 ([3]; read-out: IC50 IL-5 release): 7.32 nM
- IC50 ([3]; read-out: IC50 LTC4 release): 4.28 nM
- IC50 ([3]; read-out: IC50 PGD2 release): 6.31 nM
- CL ([4]; 1.0 mg/kg (iv)): moderate
- Oral Bioavailability ([4]; 1.0 (iv), 10 (po) mg/kg): low
- clearance ([4]; plasma, 1.0 mg/kg (iv)): 26 mL/min/kg
- bioavailability ([4]; plasma, 10 mg/kg, 1.0 (iv), 10 (po) mg/kg): 12%
- particle size of 90% particles ([5]; micronized at 80 psi, material for mOVA40 and mPolyIC): ≤ 6 μm
- particles of size 5 μm or less ([5]; micronized at 90 psi, material for mOVA36): Eighty
- mean particle size (d50%) ([5]; micronized in Jet-O-Mizer jet mill at 80 psi, material for mOVA40 and mPolyIC): 3.05 μm
- mean particle size (d50%) ([5]; micronized in Jet-O-Mizer jet mill at 90 psi, material for mOVA36): 2.88 μm
- change in polymorphic form during the micronization process ([5]; powder X-ray diffraction before and after micronization): No change
SMILES: CN1CCC(c2ccc(Nc3cc(-c4ccnc(-n5ncc6cc(C(C)(C)C)cc(F)c6c5=O)c4CO)nn(C)c3=O)nc2)CC1 [Compound 1, 6-tert-Butyl-8-fluoro-2-{3-hydroxymethyl-4-[1-methyl-5-(1′-methyl-1′,2′,3′,4′,5′,6′-hexahydro-[3,4′]bipyridinyl-6-ylamino)-6-oxo-1,6-dihydro-pyridazin-3-yl]-pyridin-2-yl}-2H-phthalazin-1-one]
- % reduction in airway resistance (R) ([1]; Inhaled, delivered dose 1.0 mg/kg, deposited dose 0.03 mg/kg, mOVA36): 44%
- % reduction in airway resistance (R) ([1]; Inhaled, delivered dose 2.7 mg/kg, deposited dose 0.1 mg/kg, mOVA36): 59* %
- % reduction in airway resistance (R) ([1]; Inhaled, delivered dose 8.6 mg/kg, deposited dose 0.3 mg/kg, mOVA36): 86* %
- % reduction in airway resistance (R) ([1]; Intranasal, delivered dose 0.3 mg/kg, deposited dose 0.3 mg/kg): 85* %
- OVA-induced increase in R ([1]; administered i.n. or delivered as a dry powder formulation by inhalation): effectively inhibited
- % reduction in airway neutrophilia ([2]; delivered dose 0.09 mg/kg, deposited dose .003 mg/kg, mPolyIC-3-12): 17%
- % reduction in airway neutrophilia ([2]; delivered dose 0.27 mg/kg, deposited dose .010 mg/kg, mPolyIC-3-12): 22%
- % reduction in airway neutrophilia ([2]; delivered dose 0.81 mg/kg, deposited dose .030 mg/kg, mPolyIC-3-12): 67* %
- % reduction in airway neutrophilia ([2]; delivered dose 8.6 mg/kg, deposited dose 0.3 mg/kg, mPolyIC-5-12): 83* %
- poly I:C-induced airway neutrophilia ([2]; dose-dependent): inhibited
- levels of neutrophil chemoattractants in the lavage fluid ([2]; mouse, in vivo): reductions
